{
  "source": "patent US10662218B2",
  "about": "“Analogs of celastrol” (ERX Pharmaceuticals, Inc., priority 2015, dated 2020)",
  "key": {"[1]": {"details": "in vivo"}, "[2]": {"assay": "Compound solubility in PBS (pH 7.4), LC-MS/MS", "details": "PBS (pH 7.4), pH 7.4, aqueous buffer, kinetic from dmso stock, Solubility (μM) Mean, Table 6-C, test concentration 100 μM (1% of DMSO), shaken (1000 rpm) 1 h at room temperature, n = 2", "experimental": "• Test concentration: 100 μM (1% of DMSO) • Test systems: PBS (pH 7.4) • Incubation condition: shaken (1000 rpm) for 1 h at room temperature • Sample size: Duplicates (n=2) • Bioanalytical method: LC-MS/MS"}, "[3]": {"tested_on": "C57BL/6 Diet Induced Obese (DIO) mice", "assay": "Oral (P.O.) administration study in DIO mice: in vivo activity, body weights", "parameters": "species or system mouse", "details": "for Individual Body Weight: individual male animals; for Body weight, Mean / change in vivo at 2 mg/kg: male; for change in vivo at 2 mg/kg: Mus musculus, po, read-out: Body weight, %-Diff", "outline": "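Male C57BL/6 DIO mice (21-22 weeks, 29.8-40.1 g) were gavage-acclimated with vehicle, then dosed orally once daily for 10 days at 2 mL/kg. Body weight was recorded daily before dosing. Cumulative change and AUC were analysed by one-way ANOVA with Dunnett's test.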"}, "[4]": {"tested_on": "C57BL/6 Diet Induced Obese (DIO) mice", "assay": "Oral (P.O.) administration study in DIO mice: food consumption", "format": "in vivo, mouse", "details": "2 mg/kg oral gavage once daily for 10 days, compared with controls", "experimental": "(§1) Dose formulations were administered by oral gavage once daily for 10 days at a dose volume of 2 mL/kg. Doses were based on the most recently recorded scheduled body weight.\nA quantitative assessment of food consumption was recorded daily on Days 11 through 14 of the predose phase and daily prior to dosing during the dosing phase.\n(§2) Descriptive statistics (n, mean, standard error of the mean, standard deviation) were completed. Additionally, one-way analysis of variance followed by Dunnett's post-hoc test were performed on body weight (cumulative body weight change), glucose (glucose percent change), and food consumption (cumulative food consumption). Area under the curve (for body weight, cumulative body weight change, daily body weight change, and food consumption) was computed for treatment groups. An appropriate comparison test, such as one-way analysis of variance and Dunnett's, was performed on the group means for the area under the curve computations. Any additional statistical analysis and interpretation of the results were the responsibility of the sponsor."}, "[5]": {"tested_on": "C57BL/6 Diet Induced Obese (DIO) mice", "assay": "Oral (P.O.) administration study in DIO mice: blood glucose level after 6 hours of fasting", "format": "in vivo, mouse", "details": "2 mg/kg oral gavage once daily for 10 days, compared with controls", "experimental": "as §1\nBlood for blood glucose was collected from all animals via tail clip on Day 14 of the predose phase, and Day 11 of the dosing phase after 6 hours of fasting. A drop of blood from each animal was placed onto two different Accu-Chek® Aviva glucometers to assess glucose values. A third value was taken, if necessary.\nas §2"}, "[6]": {"tested_on": "C57BL/6 Diet Induced Obese (DIO) mice", "assay": "Oral (P.O.) administration study in DIO mice: animal fate (mortality) and clinical observations", "details": "individual male DIO mouse, 2 mg/kg; phase of fate Dosing, phase week 2, phase day 11", "outline": "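Male C57BL/6 DIO mice received 2 mg/kg of each compound by oral gavage once daily for 10 days; vehicle was 1% methyl cellulose in citric acid/phosphate buffer. Mortality and clinical signs recorded alongside body weight, food intake and blood glucose; animals sacrificed Day 11.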"}, "[7]": {"details": "2 mg/kg oral gavage once daily for 10 days, compared with controls"}},
  "note": "Where “and” joins values, the source holds several entries; their conditions need not be identical. Equal entries are not always repeated. Entries after “also recorded” stand apart in the source; their conditions may differ. Where two headings read alike, the source gives them in different places.",
  "data": [
    {"smiles": "Cc1c(O)c(O)cc2c1C(=O)C=C1[C@@]2(C)CC[C@@]2(C)[C@@H]3C[C@](C)(C(=O)O)CC[C@]3(C)CC[C@]12C", "note": "[ERX1030]", "values": [
      {"measurement": "Oral bioavailability", "setting": "[1]", "value": "−"}
    ]},
    {"smiles": "CC(=O)N[C@]1(C)CC[C@]2(C)CC[C@]3(C)C4=CC=C5C(=CC(=O)C(O)=C5C)[C@]4(C)CC[C@@]3(C)[C@@H]2C1", "note": "[ERX1168]", "values": [
      {"measurement": "solubility at 1 h", "setting": "[2]", "value": 5.05, "unit": "µM"},
      {"measurement": "area under the curve (AUC) for cumulative body weight change", "setting": "[3]; [7]", "value": "statistically significant decreases"},
      {"measurement": "area under the curve (AUC) for daily body weight change", "setting": "[3]; [7]", "value": "statistically significant decreases"},
      {"measurement": "cumulative body weight change", "setting": "[3]; [7]", "value": "statistically significant decreases"},
      {"measurement": "Individual Body Weight", "setting": "[3]; 2 mg/kg, Phase Day DSNG 3", "value": "30.7 g and 37.3 g and 34.4 g and 30.5 g and 28.3 g"},
      {"measurement": "Individual Body Weight", "setting": "[3]; 2 mg/kg, Phase Day DSNG 4", "value": "30.0 g and 37.5 g and 34.2 g and 29.1 g and 28.9 g"},
      {"measurement": "Individual Body Weight", "setting": "[3]; 2 mg/kg, Phase Day DSNG 5", "value": "29.2 g and 36.1 g and 33.2 g and 28.8 g and 28.0 g"},
      {"measurement": "Individual Body Weight", "setting": "[3]; 2 mg/kg, Phase Day DSNG 6", "value": "28.4 g and 33.9 g and 31.6 g and 27.0 g and 26.7 g"},
      {"measurement": "Individual Body Weight", "setting": "[3]; 2 mg/kg, Phase Day DSNG 7", "value": "28.9 g and 32.3 g and 30.7 g and 27.0 g and 27.3 g"},
      {"measurement": "Individual Body Weight", "setting": "[3]; 2 mg/kg, Phase Day DSNG 8", "value": "28.7 g and 32.7 g and 29.5 g and 27.7 g and 26.9 g"},
      {"measurement": "Body weight, Mean", "setting": "[3]; DIO mice, 2 mg/kg, phase DSNG, Day 7", "value": 29.2, "unit": "g"},
      {"measurement": "Body weight, Mean", "setting": "[3]; DIO mice, 2 mg/kg, phase DSNG, Day 8", "value": 29.1, "unit": "g"},
      {"measurement": "Body weight, Mean", "setting": "[3]; DIO mice, 2 mg/kg, phase DSNG, Day 9", "value": 30.0, "unit": "g"},
      {"measurement": "Body weight, Mean", "setting": "[3]; DIO mice, 2 mg/kg, phase DSNG, Day 10", "value": 29.2, "unit": "g"},
      {"measurement": "Body weight, Mean", "setting": "[3]; DIO mice, 2 mg/kg, phase DSNG, Day 11", "value": 29.2, "unit": "g"},
      {"measurement": "Body weight, Mean", "setting": "[3]; Day 1, DSNG phase, 2 mg/kg, N=5", "value": 34.5, "unit": "g"},
      {"measurement": "Body weight, Mean", "setting": "[3]; Day 2, DSNG phase, 2 mg/kg, N=5", "value": 34.0, "unit": "g"},
      {"measurement": "Body weight, Mean", "setting": "[3]; Day 3, DSNG phase, 2 mg/kg, N=5", "value": 32.2, "unit": "g"},
      {"measurement": "Body weight, Mean", "setting": "[3]; Day 4, DSNG phase, 2 mg/kg, N=5", "value": 31.9, "unit": "g"},
      {"measurement": "Body weight, Mean", "setting": "[3]; Day 5, DSNG phase, 2 mg/kg, N=5", "value": 31.1, "unit": "g"},
      {"measurement": "Body weight, Mean", "setting": "[3]; Day 6, DSNG phase, 2 mg/kg, N=5", "value": 29.5, "unit": "g"},
      {"measurement": "change in vivo at 2 mg/kg", "setting": "[3]; 24 h, Day 1, DSNG phase, 2 mg/kg, difference of group mean", "value": 1, "unit": "%"},
      {"measurement": "change in vivo at 2 mg/kg", "setting": "[3]; 48 h, Day 2, DSNG phase, 2 mg/kg, difference of group mean", "value": -1, "unit": "%"},
      {"measurement": "change in vivo at 2 mg/kg", "setting": "[3]; 72 h, Day 3, DSNG phase, 2 mg/kg, difference of group mean", "value": -5, "unit": "%"},
      {"measurement": "change in vivo at 2 mg/kg", "setting": "[3]; 96 h, Day 4, DSNG phase, 2 mg/kg, difference of group mean", "value": -4, "unit": "%"},
      {"measurement": "change in vivo at 2 mg/kg", "setting": "[3]; 120 h, Day 5, DSNG phase, 2 mg/kg, difference of group mean", "value": -8, "unit": "%"},
      {"measurement": "change in vivo at 2 mg/kg", "setting": "[3]; 144 h, Day 6, DSNG phase, 2 mg/kg, difference of group mean", "value": -12, "unit": "%"},
      {"measurement": "change in vivo at 2 mg/kg", "setting": "[3]; 168 h, DIO mice, 2 mg/kg, phase DSNG, Day 7, difference of group mean from vehicle group 1", "value": -13, "unit": "%"},
      {"measurement": "change in vivo at 2 mg/kg", "setting": "[3]; 192 h, DIO mice, 2 mg/kg, phase DSNG, Day 8, difference of group mean from vehicle group 1", "value": -14, "unit": "%"},
      {"measurement": "change in vivo at 2 mg/kg", "setting": "[3]; 216 h, DIO mice, 2 mg/kg, phase DSNG, Day 9, difference of group mean from vehicle group 1", "value": -10, "unit": "%"},
      {"measurement": "change in vivo at 2 mg/kg", "setting": "[3]; 240 h, DIO mice, 2 mg/kg, phase DSNG, Day 10, difference of group mean from vehicle group 1", "value": -13, "unit": "%"},
      {"measurement": "change in vivo at 2 mg/kg", "setting": "[3]; 264 h, DIO mice, 2 mg/kg, phase DSNG, Day 11, difference of group mean from vehicle group 1", "value": -14, "unit": "%"},
      {"measurement": "Individual Body Weight, DSNG 1", "setting": "[3]; individual male DIO mouse, 2 mg/kg, dosing phase day 1, 2 mg/kg", "value": "33.1 g and 39.5 g and 36.9 g and 31.9 g and 31.1 g"},
      {"measurement": "Individual Body Weight, DSNG 2", "setting": "[3]; individual male DIO mouse, 2 mg/kg, dosing phase day 2, 2 mg/kg", "value": "32.5 g and 40.4 g and 36.2 g and 31.2 g and 29.9 g"},
      {"measurement": "Individual Body Weight, PRED 11", "setting": "[3]; individual male DIO mouse, group dosed 2 mg/kg, pre-dose phase day 11 (baseline), 2 mg/kg", "value": "35.6 g and 39.3 g and 37.3 g and 35.3 g and 33.0 g"},
      {"measurement": "Individual Body Weight, PRED 12", "setting": "[3]; individual male DIO mouse, group dosed 2 mg/kg, pre-dose phase day 12 (baseline), 2 mg/kg", "value": "35.2 g and 40.3 g and 37.2 g and 33.1 g and 31.0 g"},
      {"measurement": "Individual Body Weight, PRED 13", "setting": "[3]; individual male DIO mouse, group dosed 2 mg/kg, pre-dose phase day 13 (baseline), 2 mg/kg", "value": "35.0 g and 40.4 g and 37.2 g and 32.5 g and 30.6 g"},
      {"measurement": "Individual Body Weight, PRED 14", "setting": "[3]; individual male DIO mouse, group dosed 2 mg/kg, pre-dose phase day 14 (baseline), 2 mg/kg", "value": "35.1 g and 41.2 g and 37.5 g and 33.3 g and 32.1 g"},
      {"measurement": "area under the curve (AUC) for cumulative food intake", "setting": "[4]", "value": "statistically significant decreases"},
      {"measurement": "cumulative food intake", "setting": "[4]", "value": "statistically significant decreases"},
      {"measurement": "glucose value percent change", "setting": "[5]", "value": "Statistically significant changes; also recorded: statistically significant decreases"},
      {"measurement": "Individual Animal Fate: Fate Status", "setting": "[6]", "value": "Scheduled Sacrifice"}
    ]}
  ]
}
